Experimental data from patent US11547697B2, “Heterocyclic compounds and uses thereof” (MILLENNIUM PHARMACEUTICALS, INC., priority 2009, dated 2023).
pIC50: −log10 of the molar value. Like-named read-outs stand apart in the source and are kept apart here.

Key:
[1] = target: p110β/p85α (Homo sapiens (Human), UniProt P42338); experiment: PI 3-Kinase (human) HTRF assay, p110β/p85α; format: biochemical
Procedure: (§1) An exemplary system is PI 3-Kinase (human) HTRF™ Assay from Upstate. […] Briefly, the assay is a time resolved FRET assay that indirectly measures PIP3 product formed by the activity of a PI3-K. The kinase reaction is performed in a microtitre plate (e.g., a 384 well microtitre plate). The total reaction volume is approximately 20 ul per well. In the first step, each well receives 2 ul of test compound in 20% dimethylsulphoxide resulting in a 2% DMSO final concentration. Next, approximately 14.5 ul of a kinase/PIP2 mixture (diluted in 1× reaction buffer) is added per well for a final concentration of 0.25-0.3 ug/ml kinase and 10 μM PIP2. The plate is sealed and incubated for 15 minutes at room temperature. To start the reaction, 3.5 ul of ATP (diluted in 1× reaction buffer) is added per well for a final concentration of 10 μM ATP. The plate is sealed and incubated for 1 hour at room temperature. The reaction is stopped by adding 5 ul of Stop Solution per well and then 5 ul of Detection Mix is added per well. The plate is sealed, incubated for 1 hour at room temperature, and then read on an appropriate plate reader. Data is analyzed and IC50s are generated using GraphPad Prism 5. […] For PI3K α, β, δ, and γ, the nM concentration of inhibitor to reach IC50 is provided.

[2] = test system: tumor cells with a PI3Kα mutation (e.g., MDA-MB-361 and T47D); experiment: Proliferation of tumor cells with PI3Kα mutation; format: cell-based; conditions: Homo sapiens
[3] = target: p110α/p85α (Homo sapiens (Human), UniProt P42336); experiment: PI 3-Kinase (human) HTRF assay, p110α/p85α; format: biochemical
Procedure: as §1

[4] = target: p110δ/p85α (Homo sapiens (Human), UniProt O00329); experiment: PI 3-Kinase (human) HTRF assay, p110δ/p85α; format: biochemical
Procedure: as §1

[5] = target: p110γ (Homo sapiens (Human), UniProt P48736); experiment: PI 3-Kinase (human) HTRF assay, p110γ; format: biochemical
[6] = T47D cells, read-out: T47D proliferation
[7] = in vitro, read-out: PI3K β IC50
[8] = T47D cells, read-out: T47D proliferation IC50
[9] = in vitro, read-out: PI3K α IC50
[10] = in vitro, read-out: PI3K γ IC50
[11] = in vitro, read-out: PI3K δ IC50
[12] = PC3, read-out: PC3 proliferation In Vitro IC50

p110β/p85α, sequence (P42338 whole entry): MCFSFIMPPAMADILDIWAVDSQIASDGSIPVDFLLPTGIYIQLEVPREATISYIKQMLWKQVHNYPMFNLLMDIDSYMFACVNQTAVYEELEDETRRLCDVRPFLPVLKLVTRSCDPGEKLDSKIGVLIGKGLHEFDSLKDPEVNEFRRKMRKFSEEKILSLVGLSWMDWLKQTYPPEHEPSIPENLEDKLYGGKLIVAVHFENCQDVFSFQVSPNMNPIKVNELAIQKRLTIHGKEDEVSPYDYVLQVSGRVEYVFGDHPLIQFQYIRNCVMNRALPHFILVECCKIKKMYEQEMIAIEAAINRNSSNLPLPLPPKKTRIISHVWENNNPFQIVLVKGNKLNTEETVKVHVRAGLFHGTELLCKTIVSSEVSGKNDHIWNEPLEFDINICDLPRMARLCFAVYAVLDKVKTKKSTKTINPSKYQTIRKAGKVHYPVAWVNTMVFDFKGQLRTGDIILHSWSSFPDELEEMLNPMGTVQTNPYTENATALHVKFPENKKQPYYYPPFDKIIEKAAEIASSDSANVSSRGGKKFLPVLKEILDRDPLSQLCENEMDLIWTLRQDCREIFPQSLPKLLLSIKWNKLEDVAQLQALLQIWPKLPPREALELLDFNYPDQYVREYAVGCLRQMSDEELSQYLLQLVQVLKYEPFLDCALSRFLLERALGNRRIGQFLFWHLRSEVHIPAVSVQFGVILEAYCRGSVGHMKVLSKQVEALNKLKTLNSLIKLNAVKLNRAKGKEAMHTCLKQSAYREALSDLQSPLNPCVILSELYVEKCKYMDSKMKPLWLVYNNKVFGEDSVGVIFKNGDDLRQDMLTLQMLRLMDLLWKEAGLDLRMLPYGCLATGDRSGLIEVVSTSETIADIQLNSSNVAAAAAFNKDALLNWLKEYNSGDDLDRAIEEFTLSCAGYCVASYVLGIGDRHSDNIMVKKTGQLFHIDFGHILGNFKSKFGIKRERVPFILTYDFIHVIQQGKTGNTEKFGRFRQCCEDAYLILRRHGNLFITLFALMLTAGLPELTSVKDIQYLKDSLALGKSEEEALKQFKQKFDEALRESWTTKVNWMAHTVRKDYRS
p110β/p85α, sequence (P27986 whole entry partner): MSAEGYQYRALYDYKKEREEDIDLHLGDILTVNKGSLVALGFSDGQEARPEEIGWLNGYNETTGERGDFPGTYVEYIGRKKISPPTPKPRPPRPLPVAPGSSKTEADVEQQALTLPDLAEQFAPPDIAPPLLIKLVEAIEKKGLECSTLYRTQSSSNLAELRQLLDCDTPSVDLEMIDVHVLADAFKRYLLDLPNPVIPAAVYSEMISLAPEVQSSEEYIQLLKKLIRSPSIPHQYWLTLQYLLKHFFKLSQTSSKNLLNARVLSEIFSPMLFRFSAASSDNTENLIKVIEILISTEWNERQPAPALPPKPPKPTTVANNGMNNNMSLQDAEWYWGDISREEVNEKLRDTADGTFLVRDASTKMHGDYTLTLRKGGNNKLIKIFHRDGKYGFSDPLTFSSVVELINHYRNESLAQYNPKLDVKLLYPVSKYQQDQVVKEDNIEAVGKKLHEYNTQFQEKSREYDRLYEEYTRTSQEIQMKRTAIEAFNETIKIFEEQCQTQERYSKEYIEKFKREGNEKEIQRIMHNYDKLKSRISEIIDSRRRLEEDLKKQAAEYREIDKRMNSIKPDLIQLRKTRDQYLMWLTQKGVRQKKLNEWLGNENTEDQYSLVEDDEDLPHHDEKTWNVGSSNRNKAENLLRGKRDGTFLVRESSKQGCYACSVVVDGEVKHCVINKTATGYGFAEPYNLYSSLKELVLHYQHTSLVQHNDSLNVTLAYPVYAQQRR
p110δ/p85α, sequence (O00329 whole entry): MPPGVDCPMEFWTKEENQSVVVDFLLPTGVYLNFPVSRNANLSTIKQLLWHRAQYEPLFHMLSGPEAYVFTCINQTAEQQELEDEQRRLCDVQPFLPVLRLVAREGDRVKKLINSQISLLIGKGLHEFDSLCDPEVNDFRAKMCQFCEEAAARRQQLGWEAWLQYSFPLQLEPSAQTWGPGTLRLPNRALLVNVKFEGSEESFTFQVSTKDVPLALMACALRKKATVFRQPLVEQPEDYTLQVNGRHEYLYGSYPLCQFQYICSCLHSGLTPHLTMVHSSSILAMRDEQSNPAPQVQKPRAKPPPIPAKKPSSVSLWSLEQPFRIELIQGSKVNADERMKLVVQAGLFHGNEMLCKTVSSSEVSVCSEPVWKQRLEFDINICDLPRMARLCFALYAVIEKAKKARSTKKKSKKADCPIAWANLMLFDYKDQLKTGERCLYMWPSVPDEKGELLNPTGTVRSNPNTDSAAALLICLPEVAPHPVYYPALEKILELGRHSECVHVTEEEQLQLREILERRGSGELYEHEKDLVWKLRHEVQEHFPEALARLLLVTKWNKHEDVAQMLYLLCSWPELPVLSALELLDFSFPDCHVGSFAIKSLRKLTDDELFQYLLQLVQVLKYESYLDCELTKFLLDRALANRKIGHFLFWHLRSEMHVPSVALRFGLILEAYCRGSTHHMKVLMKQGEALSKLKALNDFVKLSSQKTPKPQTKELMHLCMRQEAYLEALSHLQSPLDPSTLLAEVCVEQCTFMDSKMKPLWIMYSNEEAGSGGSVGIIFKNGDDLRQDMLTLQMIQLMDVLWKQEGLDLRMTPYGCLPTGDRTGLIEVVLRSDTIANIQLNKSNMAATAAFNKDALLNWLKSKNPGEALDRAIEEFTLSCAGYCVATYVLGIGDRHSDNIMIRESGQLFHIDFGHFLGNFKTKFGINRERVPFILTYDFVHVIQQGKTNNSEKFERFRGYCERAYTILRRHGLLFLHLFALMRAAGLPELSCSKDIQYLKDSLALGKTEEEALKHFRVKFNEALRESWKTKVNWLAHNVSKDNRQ
p110δ/p85α, sequence (P27986 whole entry partner): as the sequence (P27986 whole entry partner) above
p110α/p85α, sequence (P42336 whole entry): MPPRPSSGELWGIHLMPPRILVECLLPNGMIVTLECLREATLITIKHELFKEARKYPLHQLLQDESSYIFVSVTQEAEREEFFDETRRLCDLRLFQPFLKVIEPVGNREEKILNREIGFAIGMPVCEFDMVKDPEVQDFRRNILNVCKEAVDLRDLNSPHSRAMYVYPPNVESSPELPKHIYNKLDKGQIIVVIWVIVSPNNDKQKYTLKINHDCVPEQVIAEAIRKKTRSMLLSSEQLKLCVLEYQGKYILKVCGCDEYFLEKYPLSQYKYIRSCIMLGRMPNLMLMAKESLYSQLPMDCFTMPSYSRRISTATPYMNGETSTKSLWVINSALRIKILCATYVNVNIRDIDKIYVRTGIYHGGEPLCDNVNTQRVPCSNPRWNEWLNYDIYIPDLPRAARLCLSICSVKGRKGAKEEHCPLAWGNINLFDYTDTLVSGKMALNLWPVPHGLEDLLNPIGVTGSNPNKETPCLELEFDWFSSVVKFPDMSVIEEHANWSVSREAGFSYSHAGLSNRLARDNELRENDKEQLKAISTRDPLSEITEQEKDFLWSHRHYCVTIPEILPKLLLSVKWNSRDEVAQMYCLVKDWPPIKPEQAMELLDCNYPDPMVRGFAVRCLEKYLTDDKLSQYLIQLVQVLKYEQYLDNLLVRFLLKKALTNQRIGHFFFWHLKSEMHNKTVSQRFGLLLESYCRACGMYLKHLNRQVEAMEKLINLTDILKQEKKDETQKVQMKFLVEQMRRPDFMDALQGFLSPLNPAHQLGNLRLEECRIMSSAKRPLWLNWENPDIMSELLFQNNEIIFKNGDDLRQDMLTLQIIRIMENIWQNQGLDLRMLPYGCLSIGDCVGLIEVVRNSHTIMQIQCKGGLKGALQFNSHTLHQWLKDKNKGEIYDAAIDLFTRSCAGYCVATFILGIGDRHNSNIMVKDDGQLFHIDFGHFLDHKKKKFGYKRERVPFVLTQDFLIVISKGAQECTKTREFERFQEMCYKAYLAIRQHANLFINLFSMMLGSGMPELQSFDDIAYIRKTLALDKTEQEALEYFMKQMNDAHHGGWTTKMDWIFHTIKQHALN
p110α/p85α, sequence (P27986 whole entry partner): as the sequence (P27986 whole entry partner) above
p110γ, sequence (P48736 whole entry): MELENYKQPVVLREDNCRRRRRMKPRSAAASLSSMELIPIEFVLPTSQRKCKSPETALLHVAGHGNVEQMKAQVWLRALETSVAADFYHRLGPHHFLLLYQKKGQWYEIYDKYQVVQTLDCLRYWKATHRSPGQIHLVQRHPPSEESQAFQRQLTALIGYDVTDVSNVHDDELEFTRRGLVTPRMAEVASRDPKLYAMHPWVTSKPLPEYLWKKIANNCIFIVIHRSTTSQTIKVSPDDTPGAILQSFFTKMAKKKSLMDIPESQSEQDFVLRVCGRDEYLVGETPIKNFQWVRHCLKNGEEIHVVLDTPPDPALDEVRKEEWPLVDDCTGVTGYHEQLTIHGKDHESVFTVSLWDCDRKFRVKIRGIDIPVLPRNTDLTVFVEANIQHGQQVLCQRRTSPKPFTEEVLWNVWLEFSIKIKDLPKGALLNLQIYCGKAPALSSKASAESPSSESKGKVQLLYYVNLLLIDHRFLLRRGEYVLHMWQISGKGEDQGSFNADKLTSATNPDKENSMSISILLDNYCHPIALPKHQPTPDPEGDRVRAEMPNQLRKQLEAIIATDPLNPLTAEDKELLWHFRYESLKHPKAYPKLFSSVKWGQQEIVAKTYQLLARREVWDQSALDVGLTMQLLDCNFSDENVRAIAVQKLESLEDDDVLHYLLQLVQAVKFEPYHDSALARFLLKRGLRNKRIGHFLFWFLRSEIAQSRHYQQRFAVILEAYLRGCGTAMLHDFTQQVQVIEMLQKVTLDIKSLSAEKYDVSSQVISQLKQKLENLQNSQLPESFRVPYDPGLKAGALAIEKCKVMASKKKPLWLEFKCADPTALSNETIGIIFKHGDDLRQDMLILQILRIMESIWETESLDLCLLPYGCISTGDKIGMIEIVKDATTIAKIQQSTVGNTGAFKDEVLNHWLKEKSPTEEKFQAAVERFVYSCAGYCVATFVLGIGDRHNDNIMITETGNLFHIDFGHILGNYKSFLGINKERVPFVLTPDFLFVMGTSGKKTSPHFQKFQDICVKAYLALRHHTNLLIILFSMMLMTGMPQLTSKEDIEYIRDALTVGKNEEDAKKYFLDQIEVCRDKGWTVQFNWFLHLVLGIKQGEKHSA

SMILES | pIC50 ([1]; read-out: PI3K β IC50) | pIC50 [2, 6] | pIC50 ([3]; read-out: PI3K α IC50) | pIC50 ([4]; read-out: PI3K δ IC50) | pIC50 ([5]; read-out: PI3K γ IC50) | also measured
Nc1noc2cc(-c3ccc4nccc(-c5ccncc5)c4c3)ccc12 [compound 16] | > 5.00 | > 6.00 | > 7.00 | > 5.00 | > 6.00 | 
CN1CCN(c2ccc(-c3cnc4ccc(-c5ccc6oc(N)nc6c5)cn34)cn2)CC1 [compound 42] |  | > 5.00 | > 7.00 | > 6.00 | > 6.00 | 
Nc1nc2cc(-c3ccc4ncc(-c5ccc6nc(N)oc6c5)n4c3)ccc2o1 [compound 50] |  | > 5.00 | > 7.00 | > 5.00 | > 7.00 | 
CN1CCN(c2cnc3ccc(-c4ccc5oc(N)nc5c4)cc3n2)CC1 [compound 65] | > 7.00 | > 5.00 | > 7.00 | > 5.00 | > 6.00 | 
CC(C)N1CCN(c2cnc3ccc(-c4ccc5oc(N)nc5c4)cc3n2)CC1 [compound 84] | > 7.00 | > 5.00 | > 7.00 | > 6.00 | > 7.00 | 
Nc1nc2cc(-c3ccc4ncc(N5CCNCC5)nc4c3)ccc2o1 [compound 88] | > 7.00 | > 5.00 | > 7.00 | > 5.00 | > 6.00 | 
CS(=O)(=O)CCN1CCN(c2cnc3ccc(-c4ccc5oc(N)nc5c4)cc3n2)CC1 [compound 90] | > 6.00 | > 6.00 | > 7.00 | > 5.00 | > 6.00 | 
Nc1nc2cc(-c3ccc4ncc(NC5CCOCC5)nc4c3)ccc2o1 [compound 96] | > 5.00 | > 6.00 | > 7.00 | > 6.00 | > 7.00 | 
Nc1nc2cc(-c3ccc4ncc(N5CCC(O)CC5)nc4c3)ccc2o1 [compound 99] | > 5.00 | > 5.00 | > 7.00 | > 6.00 | > 6.00 | 
Nc1nc2cc(-c3ccc4ncc(N5CCN(CCO)CC5)nc4c3)ccc2o1 [compound 100] | > 7.00 | > 6.00 | > 7.00 | > 5.00 | > 6.00 | 
Nc1nc2cc(-c3ccc4ncc(-c5cnn(CCO)c5)nc4c3)ccc2o1 [compound 108] | > 5.00 | > 6.00 | > 7.00 |  | > 7.00 | 
CS(=O)(=O)N1CCN(C(=O)c2cnc3ccc(-c4ccc5oc(N)nc5c4)cn23)CC1 [compound 112] |  | > 6.00 | > 7.00 | > 5.00 | > 6.00 | 
CC(=O)N1CCN(C(=O)c2cnc3ccc(-c4ccc5oc(N)nc5c4)cn23)CC1 [compound 113] |  | > 5.00 | > 7.00 |  | > 6.00 | 
CN1CCN(c2cnc3ccc(-c4ccc5nc(N)sc5c4)cc3n2)CC1 [compound 115] | > 7.00 | > 5.00 | > 7.00 |  | > 5.00 | 
Nc1nc2cc(-c3ccc4ncc(N5CCOCC5)nc4c3)ccc2s1 [compound 116] | > 6.00 | > 6.00 | > 7.00 |  | > 6.00 | 
Nc1nc2ccc(-c3ccc4ncc(N5CCOCC5)nc4c3)cc2o1 [compound 117] | > 6.00 | > 5.00 | > 7.00 |  | > 6.00 | 
CNC(=O)CN1CCN(c2cnc3ccc(-c4ccc5oc(N)nc5c4)cc3n2)CC1 [compound 120] | > 6.00 | > 6.00 | > 7.00 | > 5.00 |  | 
Nc1nc2cc(-c3ccc4ncc(N5CCNC(=O)C5)nc4c3)ccc2o1 [compound 135] | > 6.00 | > 6.00 | > 7.00 |  | > 6.00 | 
Nc1nc2cc(-c3ccc4ncc(C(=O)NC5CCC(O)CC5)n4c3)ccc2o1 (stereo not shown) [compound 143] |  | > 6.00 |  |  |  | 

SMILES | pIC50 ([1]; read-out: PI3K β IC50) | pIC50 [2, 6] | pIC50 ([3]; read-out: PI3K α IC50) | pIC50 ([4]; read-out: PI3K δ IC50) | pIC50 ([5]; read-out: PI3K γ IC50) | also measured
Nc1nc2cc(-c3ccc4ncc(C(=O)N5CCN(CCO)CC5)n4c3)ccc2o1 [compound 148] |  | > 5.00 | > 7.00 |  | > 5.00 | 
CC(C)N1CCN(C(=O)c2cnc3ccc(-c4ccc5oc(N)nc5c4)cn23)CC1 [compound 160] | > 5.00 | > 5.00 | > 7.00 |  |  | 
Nc1nc2cc(-c3ccc4ncc(N5CCC(N)CC5)nc4c3)ccc2o1 [compound 168] | > 6.00 | > 5.00 | > 7.00 | > 5.00 |  | 
Nc1nc2cc(-c3ccc4ncn(CCO)c(=O)c4c3)ccc2o1 [compound 184] | > 5.00 | > 5.00 | > 7.00 |  | > 6.00 | 
CC1CN(C(=O)c2cnc3ccc(-c4ccc5oc(N)nc5c4)cn23)CCO1 (stereo not shown) [compound 201] |  |  |  |  |  | pIC50 [1, 7]: > 5.00; pIC50 [2, 8]: > 5.00; pIC50 [3, 9]: > 7.00; pIC50 [5, 10]: > 5.00
CC(C)(N)C(=O)N1CCN(c2cnc3ccc(-c4ccc5oc(N)nc5c4)cc3n2)CC1 [compound 213] |  |  |  |  |  | pIC50 [1, 7]: > 6.00; pIC50 [2, 8]: > 6.00; pIC50 [3, 9]: > 7.00; pIC50 [4, 11]: > 6.00
NC(=O)[C@@H]1CCCN1c1cnc2ccc(-c3ccc4oc(N)nc4c3)cc2n1 [compound 257] |  |  |  |  |  | pIC50 [2, 8]: > 5.00; pIC50 [3, 9]: > 7.00
Nc1nc2cc(-c3ccc4ncc(N5CCN(C6CC6)CC5)nc4c3)ccc2o1 [compound 261] |  |  |  |  |  | pIC50 [1, 7]: > 6.00; pIC50 [2, 8]: > 5.00; pIC50 [3, 9]: > 7.00; pIC50 [5, 10]: > 6.00
NC(=O)[C@@H]1CCCN1C(=O)C1CN(c2cnc3ccc(-c4ccc5oc(N)nc5c4)cc3n2)C1 [compound 283] |  |  |  |  |  | pIC50 [2, 8]: > 5.00; pIC50 [3, 9]: > 7.00; pIC50 [5, 10]: > 6.00
Cc1ccc(NC(=O)c2cnc3ccc(-c4ccc5oc(N)nc5c4)cn23)cn1 [compound 294] |  |  |  |  |  | pIC50 [2, 8]: > 5.00; pIC50 [3, 9]: > 7.00; pIC50 [4, 11]: > 5.00; pIC50 [5, 10]: > 7.00
Nc1nc2cc(-c3ccc4ncc(N5CC(N6CCN(CC7CC7)CC6)C5)nc4c3)ccc2o1 [compound 335] |  |  |  |  |  | pIC50 [1, 7]: > 5.00; pIC50 [2, 8]: > 6.00; pIC50 [3, 9]: > 7.00; pIC50 [4, 11]: > 5.00
Nc1nc2cc(-c3ccc4ncc(N5CC(N6CCC(O)CC6)C5)nc4c3)ccc2o1 [compound 341] |  |  |  |  |  | pIC50 [2, 8]: > 5.00; pIC50 [3, 9]: > 6.00; pIC50 [4, 11]: > 5.00; pIC50 [5, 10]: > 5.00
CO[C@@H]1CCN(C(=O)c2cnc3ccc(-c4ccc5oc(N)nc5c4)cn23)C1 [compound 464] |  |  |  |  |  | pIC50 [2, 12]: > 5.00; pIC50 ([3]; read-out: PI3K α In Vitro IC50): > 7.00; pIC50 ([5]; read-out: PI3K γ In Vitro IC50): > 6.00
Nc1nc2cc(-c3ccc4ncc(C(=O)N5CCC(F)(F)C5)n4c3)ccc2o1 [compound 471] |  |  |  |  |  | pIC50 [2, 12]: > 5.00; pIC50 ([3]; read-out: PI3K α In Vitro IC50): > 7.00; pIC50 ([5]; read-out: PI3K γ In Vitro IC50): > 7.00
Nc1nc2cc(-c3ccc4ncc(C(=O)N5CC(F)(F)C5)n4c3)ccc2o1 [compound 473] |  |  |  |  |  | pIC50 [2, 12]: > 6.00; pIC50 ([3]; read-out: PI3K α In Vitro IC50): > 7.00; pIC50 ([5]; read-out: PI3K γ In Vitro IC50): > 7.00
Nc1nc2cc(-c3ccc4ncc(C(=O)N5C6CCC5COC6)n4c3)ccc2o1 [compound 480] |  |  |  |  |  | pIC50 [2, 12]: > 6.00; pIC50 ([3]; read-out: PI3K α In Vitro IC50): > 7.00; pIC50 ([4]; read-out: PI3K δ In Vitro IC50): > 5.00; pIC50 ([5]; read-out: PI3K γ In Vitro IC50): > 6.00
C[C@H]1COCCN1C(=O)c1cnc2ccc(-c3ccc4oc(N)nc4c3)cn12 [compound 483] |  |  |  |  |  | pIC50 ([1]; read-out: PI3K β In Vitro IC50): > 5.00; pIC50 [2, 12]: > 5.00; pIC50 ([3]; read-out: PI3K α In Vitro IC50): > 7.00; pIC50 ([5]; read-out: PI3K γ In Vitro IC50): > 5.00
CN1CCC(n2cnc3ccc(-c4cnc(Cl)c(NS(C)(=O)=O)c4)cc3c2=O)CC1 [compound 526] |  |  |  |  |  | pIC50 ([1]; read-out: PI3K β In Vitro IC50): > 5.00; pIC50 [2, 12]: > 5.00; pIC50 ([3]; read-out: PI3K α In Vitro IC50): > 7.00; pIC50 ([4]; read-out: PI3K δ In Vitro IC50): > 6.00
CN1CCC(n2cnc3ccc(-c4cnc(Cl)c(NS(=O)(=O)c5ccccc5)c4)cc3c2=O)CC1 [compound 527] |  |  |  |  |  | pIC50 ([1]; read-out: PI3K β In Vitro IC50): > 7.00; pIC50 ([3]; read-out: PI3K α In Vitro IC50): > 7.00; pIC50 ([4]; read-out: PI3K δ In Vitro IC50): > 7.00; pIC50 ([5]; read-out: PI3K γ In Vitro IC50): > 6.00
